Biological target: Programmed cell death protein 1/Programmed cell death 1 ligand 1 (Homo sapiens, UniProt Q9NZQ7)
Experiment: Inhibition of human PD1/PDL1 protein-protein interaction by HTRF assay
Format: protein-complex assay

Chain of Programmed cell death protein 1/Programmed cell death 1 ligand 1 (Q15116 whole entry): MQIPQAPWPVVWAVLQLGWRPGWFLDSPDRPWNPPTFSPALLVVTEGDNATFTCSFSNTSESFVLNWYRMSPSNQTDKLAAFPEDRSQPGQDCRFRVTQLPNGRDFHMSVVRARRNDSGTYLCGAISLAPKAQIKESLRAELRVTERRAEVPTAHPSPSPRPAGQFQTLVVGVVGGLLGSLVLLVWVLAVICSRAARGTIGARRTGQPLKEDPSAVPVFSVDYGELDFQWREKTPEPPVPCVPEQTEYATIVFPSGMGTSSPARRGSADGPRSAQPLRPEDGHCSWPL
Chain of Programmed cell death protein 1/Programmed cell death 1 ligand 1 (Q9NZQ7 whole entry): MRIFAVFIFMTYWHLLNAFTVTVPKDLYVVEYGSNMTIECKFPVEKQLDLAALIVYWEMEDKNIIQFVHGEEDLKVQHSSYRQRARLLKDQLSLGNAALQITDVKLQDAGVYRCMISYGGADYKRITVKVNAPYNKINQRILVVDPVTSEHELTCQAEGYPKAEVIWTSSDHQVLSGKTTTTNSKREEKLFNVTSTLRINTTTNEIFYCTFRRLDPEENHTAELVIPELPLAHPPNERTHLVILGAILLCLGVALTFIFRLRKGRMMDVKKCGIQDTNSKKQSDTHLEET

| Structure (SMILES) | IC50 |
| --- | --- |
| Cc1c(COc2cc(OCc3cccc(C#N)c3)c(CN3CC[C@@H](C(=O)O)C3)cc2Cl)cccc1-c1ccc2c(c1)OCCO2 | 15.2 nM |
| Cc1c(/C=C/C(=O)c2cc(CN3CCN(c4cccc([N+](=O)[O-])c4)CC3)ccc2O)cccc1-c1ccc2c(c1)OCCO2 | 19300 nM |
| CC(=O)NCCNCc1ccc2cc(OCc3cccc(-c4ccccc4)c3C)ccc2c1 | > 10000 nM |
| Cc1c(COc2cc(OCc3cccc(C#N)c3)c(CN3CC[C@@H](O)C3)cc2Cl)cccc1-c1ccc2c(c1)OCCO2 | 14.9 nM |
| Cc1c(COc2cc(OCc3cccc(C#N)c3)c(CN3CCCCC3C(=O)O)cc2Cl)cccc1-c1ccncc1 (centres undefined) | > 100 nM |
| Cc1c(COc2cc(OCc3cccc(C#N)c3)c(CN3CC[C@@H](C(=O)O)C3)cc2Cl)cccc1-c1ccccc1 | 10 to 100 nM |
| Cc1c(COc2cc(OCc3cccc(C#N)c3)c(CNC(C)(C)C(=O)O)cc2Cl)cccc1-c1ccc2c(c1)OCCO2 | 25.2 nM |
| Cc1c(COc2cc(OCc3cccc(C#N)c3)c(CN3CCCC[C@H]3C(=O)O)cc2Cl)cccc1-c1ccncc1 | > 100 nM |
| Cc1c(COc2ccc3cc(CNCCN)ccc3c2)cccc1-c1ccccc1 | > 10000 nM |
| c1cc2c(cc1[C@H]1OC[C@H]3[C@@H]1CO[C@@H]3c1ccc3c(c1)OCO3)OCO2 [SESAMIN] | > 100000 nM |
| CCN1CCN(Cc2ccc(O)c(C(=O)/C=C/c3cccc(-c4ccccc4)c3C)c2)CC1 | 14600 nM |
| Cc1c(COc2cc(OCc3cccc(C#N)c3)c(CN3CCCC[C@H]3C(=O)O)cc2Cl)cccc1-c1cncnc1 | > 100 nM |
| Cc1c(COc2ccc3cc(CN[C@@H](CO)C(=O)O)ccc3c2)cccc1-c1ccc2c(c1)OCCO2 | > 10000 nM |
| CC(=O)N1CCN(Cc2ccc3oc(-c4cccc(-c5ccccc5)c4C)cc(=O)c3c2)CC1 | > 10000 nM |
| Cc1c(COc2cc(OCc3cccc(C#N)c3)c(CN3CC[C@@H](O)C3)cc2Cl)cccc1-c1ccccc1 | 10 to 100 nM |
| Cc1c(-c2ccccc2)cccc1-c1cc(=O)c2cc(CN3CCN(CC4CC4)CC3)ccc2o1 | > 10000 nM |
| Cc1c(COc2ccc3cc(CN4C[C@@H](O)C[C@H]4C(=O)O)ccc3c2)cccc1-c1ccccc1 | > 10000 nM |
| Cc1c(COc2cc(OCc3cccc(C#N)c3)c(CN3CC[C@H](O)C3)cc2Cl)cccc1-c1ccc2c(c1)OCCO2 | 27.5 nM |
| Cc1c(COc2cc(OCc3cccc(C#N)c3)c(CNCC(=O)O)cc2Cl)cccc1-c1ccc2c(c1)OCCO2 | > 100 nM |
| Cc1c(COc2cc(OCc3cccc(C#N)c3)c(CN3C[C@@H](O)C[C@@H]3CO)cc2Cl)cccc1-c1ccccc1 | 10 to 100 nM |

| Structure (SMILES) | IC50 |
| --- | --- |
| Cc1c(COc2cc(OCc3cccc(C#N)c3)c(CNCCN(C)C)cc2Cl)cccc1-c1ccccc1 | 10 to 100 nM |
| CC(=O)N1CCN(Cc2ccc3oc(-c4cccc(-c5ccc6c(c5)OCCO6)c4C)cc(=O)c3c2)CC1 | > 10000 nM |
| Cc1c(COc2cc(OCc3cccc(C#N)c3)c(CN3CCC(O)C3)cc2Cl)cccc1-c1ccccc1 (centres undefined) | 10 to 100 nM |
| Cc1c(COc2cc(OCc3cccc(C#N)c3)c(CN3CCN(C)CC3)cc2Cl)cccc1-c1ccc2c(c1)OCCO2 | 225 nM |
| Cc1c(COc2cc(OCc3cccc(C#N)c3)c(CN3CCCC[C@@H]3C(=O)O)cc2Cl)cccc1-c1ccncc1 | > 100 nM |
| Cc1c(COc2cc(OCc3cccc(C#N)c3)c(CN3CCCC[C@H]3C(=O)O)cc2Cl)cccc1-c1cccnc1 | > 100 nM |
| Cc1c(COc2cc(OCc3cccc(C#N)c3)c(CNCCN(C)C)cc2Cl)cccc1-c1ccc2c(c1)OCCO2 | 26.3 nM |
| Cc1c(COc2cc(OCc3cccc(C#N)c3)c(CNCCN)cc2Cl)cccc1-c1ccc2c(c1)OCCO2 | > 100 nM |
| CC(=O)N1CCN(Cc2cc(Cl)c(OCc3cccc(-c4ccc5c(c4)OCCO5)c3C)cc2OCc2cccc(C#N)c2)CC1 | 408 nM |
| Cc1c(COc2cc(OCc3cccc(C#N)c3)c(/C=N/C(CS)C(=O)O)cc2Cl)cccc1-c1ccccc1 (centres undefined) | > 100 nM |
| Cc1c(-c2ccccc2)cccc1-c1cc(=O)c2cc(CN3CCNCC3)ccc2o1 | > 10000 nM |
| Cc1c(COc2cc(OCc3cccc(C#N)c3)c(CNCC(=O)O)cc2Cl)cccc1-c1ccccc1 | 10 to 100 nM |
| Cc1c(COc2cc(OCc3cccc(C#N)c3)c(CNC(C)(C)C(=O)O)cc2Cl)cccc1-c1cccnc1 | 10 to 100 nM |
| Cc1c(COc2cc(OCc3cccc(C#N)c3)c(CN[C@@H](C(=O)O)[C@H](C)O)cc2Cl)cccc1-c1ccccc1 | 8.5 nM |
| Cc1c(COc2cc(OCc3cccc(C#N)c3)c(CN3CCN(C(=O)OC(C)(C)C)CC3)cc2Cl)cccc1-c1ccc2c(c1)OCCO2 | > 1000 nM |
| Cc1c(COc2cc(OCc3cccc(C#N)c3)c(CN3CCN(CC4CC4)CC3)cc2Cl)cccc1-c1ccc2c(c1)OCCO2 | > 1000 nM |
| Cc1c(COc2cc(OCc3cccc(C#N)c3)c(CN3C[C@@H](O)C[C@H]3C(=O)O)cc2Cl)cccc1-c1cncnc1 | > 100 nM |
| CC(=O)N1CCN(Cc2ccc3oc(-c4cccc(-c5ccccc5)c4F)cc(=O)c3c2)CC1 | > 10000 nM |
| Cc1c(COc2cc(OCc3cccc(C#N)c3)c(CN3CC[C@H](O)C3)cc2Cl)cccc1-c1ccccc1 | 10 to 100 nM |

— ChEMBL document CHEMBL4619786, “Discovery of Novel Resorcinol Dibenzyl Ethers Targeting the Programmed Cell Death-1/Programmed Cell Death-Ligand 1 Interaction as Potential Anticancer Agents” (J Med Chem, 2020)
